The target in one assay is T1, EDG1 (Homo sapiens, UniProt P21453).
T1 construct: expressed in transfected cells; host or cells: T lymphoid cell line (Jurkat, EDG1 #15 clone), retroviral TIM EDG1 vector, tetracycline-regulated
Description: Migration assay employing EDG1 as a migration molecule (T lymphoid cells overexpressing EDG1 migrating toward S1P, 96-well, CyQuant GR fluorescence). Type of assay: cell-based. The conditions noted are these: migration in response to S1P, hydrochloride. The procedure:
(§1) Both cell lines were used to optimize assay parameters in order to maximize accuracy and throughput in an automated 96-well format. Compounds were added together with S1P in bottom receiver plate; lipid starved cells were placed in the upper filter plate. The T cell migration may be finished in 2 to 4 hours. The cells which migrated to the receiver plate were stained with a fluorescence dye (CyQuant GR™) and detected by a fluorescence plate reader.
On day one, EDG1 expressing cells were grown at 0.4 millions/ml in RPMI 1640 containing 10% lipid-free serum (Charcoal-Dextran-Stripped Fetal Bovine Serum, Cat# 100-502 (Gemini Bioproducts™)) for 24 hours. EDG1 cells are maintained below 1 million/ml at all times. On the next day, cells were spun down, washed once with serum-free medium and re-suspended in RPMI 1640 containing 0.1% BSA (fat-free, cell culture tested) (Cat# A8806 (SIGMA ALDRICH FLUKA CHEMICALS™)) at a density of 6×10^6 per ml. 170 μl RPMI 1640 (0.1% BSA) containing 20 nM S1P (Cat# SL-140 (BioMol™)) and/or desired drugs were added to the receiver plate of […] Millipore Multiscreen MIC™ plates (Cat# MAMI C3S 10, 3 um pore size (Millipore™)) and the filter plates were carefully placed over the receiver plate. […] After 30 min agitating at RT, the plate was read in a fluorescence plate reader using 480/520 nm filter set.

The target of a further assay is T2, EDG3 (Homo sapiens, UniProt Q99500).
T2 construct: expressed in transfected cells; host or cells: T lymphoid cell line (Jurkat, EDG3 #1 clone), pNIGEDG3 vector, constitutive expression
T2 sequence (Q99500 whole entry): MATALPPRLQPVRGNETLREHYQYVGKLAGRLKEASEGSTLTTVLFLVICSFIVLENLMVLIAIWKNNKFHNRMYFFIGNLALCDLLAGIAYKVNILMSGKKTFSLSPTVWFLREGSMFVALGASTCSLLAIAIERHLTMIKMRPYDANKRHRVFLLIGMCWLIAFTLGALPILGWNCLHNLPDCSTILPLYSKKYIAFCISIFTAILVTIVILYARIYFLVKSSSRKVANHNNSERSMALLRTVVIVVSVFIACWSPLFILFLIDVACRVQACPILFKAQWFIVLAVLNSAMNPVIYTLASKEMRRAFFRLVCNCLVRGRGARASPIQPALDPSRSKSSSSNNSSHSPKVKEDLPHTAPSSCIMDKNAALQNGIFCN
Description: Migration assay employing EDG3 as a migration molecule (T lymphoid cells overexpressing EDG3 migrating toward S1P, 96-well, CyQuant GR fluorescence). Type of assay: cell-based. Here is the method:
as §1
On day one, EDG3 expressing cells were grown at 0.8 millions/ml in RPMI 1640 containing 10% lipid-free serum (Charcoal-Dextran-Stripped Fetal Bovine Serum, Cat# 100-502 (Gemini Bioproducts™)) for 24 hours. EDG3 cells are maintained below 3 million/ml at all times. On the next day, cells were spun down, washed once with serum-free medium and re-suspended in RPMI 1640 containing 0.1% BSA (fat-free, cell culture tested) (Cat# A8806 (SIGMA ALDRICH FLUKA CHEMICALS™)) at a density of 8×10^6 per ml. 170 μl RPMI 1640 (0.1% BSA) containing 60 nM S1P (Cat# SL-140 (BiOMOl™)) and/or desired drugs were added to the receiver plate of […] Millipore Multiscreen MIC plates (Cat# MAMI C3S 10, 3 um pore size (Millipore™)) and the filter plates were carefully placed over the receiver plate. […] After 30 min agitating at RT, the plate was read in a fluorescence plate reader using 480/520 nm filter set.

Molecules are shown by their SMILES. Entries after “also recorded” stand apart in the source; their conditions may differ. Structures can show the parent of a compound that is named as a salt.

T1 sequence (P21453 whole entry): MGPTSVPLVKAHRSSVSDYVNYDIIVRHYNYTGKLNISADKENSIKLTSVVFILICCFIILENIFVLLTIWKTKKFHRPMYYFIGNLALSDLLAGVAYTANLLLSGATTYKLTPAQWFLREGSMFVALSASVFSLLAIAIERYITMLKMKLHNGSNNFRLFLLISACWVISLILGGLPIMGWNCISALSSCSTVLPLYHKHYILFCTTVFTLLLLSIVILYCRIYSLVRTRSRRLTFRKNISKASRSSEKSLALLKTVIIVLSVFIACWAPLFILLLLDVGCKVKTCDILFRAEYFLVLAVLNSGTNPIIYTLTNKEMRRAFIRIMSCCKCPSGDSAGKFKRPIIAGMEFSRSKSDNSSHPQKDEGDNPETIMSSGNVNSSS

With `CCCCCCCCc1ccc(CCC(N)(CO)CO)cc1` [FTY720, 2-amino-2(2-[4-octylphenylethyl)-1,3-propanediol hydrochloride], at EDG1, the “inhibition of migration of EDG1 #15 clone” value was “inhibition of migration; also recorded: specifically inhibit; also recorded: inhibits the migration of EDG1#15 clone”.
For `Cc1ccc(C(=O)Nc2ccc(S(=O)(=O)O)c3cc(S(=O)(=O)O)cc(S(=O)(=O)O)c23)cc1NC(=O)c1cccc(NC(=O)Nc2cccc(C(=O)Nc3cc(C(=O)Nc4ccc(S(=O)(=O)O)c5cc(S(=O)(=O)O)cc(S(=O)(=O)O)c45)ccc3C)c2)c1` [suramin], the “differential inhibition of EDG1 and EDG3 migration” value at EDG3 (EDG1 versus EDG3 clones, FIG. 10B) is “differential inhibition of EDG1 and EDG3 migration”. Also, the “inhibition of migration of EDG3 #1 clone” value against EDG3 (EDG3-overexpressing T lymphoid cells, migration in response to S1P) is reported as “specifically inhibit; also recorded: inhibition of EDG3 #1 clone migration”.

(Values after patent publication US20060057559A1, “High-throughput cell migration screening assay” (Rigel Pharmaceuticals, Inc., priority 2004, published 2006).)
